Here are results for 8 molecules from patent US20230002377A1, “THERAPEUTIC COMBINATIONS OF DRUGS AND METHODS OF USING THEM” (HARMONY BIOSCIENCES, LLC, priority 2020, published 2023).

Data set [1] in a line: Metabolite level of Formula II in phase I clinical trial. Format: in vivo, human. The settings on record: healthy volunteers. An excerpt:
(§1) By substituting the hydrogens with deuterium on the carbon(s) adjacent to the nitrogen which is acetylated (see for example, Examples 5 to 7), acetylation process can be slowed down to reduce the formation of this metabolite.

The target in data set [2] is MCHR1 (Homo sapiens, UniProt Q99705). Briefly: Contribution of N-acetyl metabolite to MCHR1 antagonism.
Sequence of MCHR1 (Q99705 whole entry, species assumed): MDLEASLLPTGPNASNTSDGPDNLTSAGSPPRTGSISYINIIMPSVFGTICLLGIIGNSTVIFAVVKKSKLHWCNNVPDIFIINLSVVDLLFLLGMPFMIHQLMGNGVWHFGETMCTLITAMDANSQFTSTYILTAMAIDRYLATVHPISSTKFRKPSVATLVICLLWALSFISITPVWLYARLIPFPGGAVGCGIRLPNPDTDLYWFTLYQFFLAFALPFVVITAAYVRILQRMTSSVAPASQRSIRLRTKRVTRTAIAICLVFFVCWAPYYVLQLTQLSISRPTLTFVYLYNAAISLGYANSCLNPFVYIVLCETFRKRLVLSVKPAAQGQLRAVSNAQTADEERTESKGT
Description: as §1

Data set [3] has as its target T1, DAT (Homo sapiens, UniProt Q01959).
T1 construct: host or cells: living brain (PET)
As to conditions: approved monoamine reuptake inhibitors at efficacious doses, cited from earlier work.

The test system of data set [4] is PWS patients. As to conditions: standard mg/day dosing, cited from earlier work.
The target in data set [5] is Transporter, Norepinephrine (NET) (Homo sapiens, UniProt P23975). As to the kind of experiment: NET radioligand binding ([125I] RTI-55), Eurofins. The settings on record: for inhibition at 0.01 µM: read-out: NET, % inhibition, 10 nM compound; for inhibition at 0.1 µM: read-out: NET, % inhibition, 100 nM compound.
Sequence of Transporter, Norepinephrine (NET) (P23975 whole entry): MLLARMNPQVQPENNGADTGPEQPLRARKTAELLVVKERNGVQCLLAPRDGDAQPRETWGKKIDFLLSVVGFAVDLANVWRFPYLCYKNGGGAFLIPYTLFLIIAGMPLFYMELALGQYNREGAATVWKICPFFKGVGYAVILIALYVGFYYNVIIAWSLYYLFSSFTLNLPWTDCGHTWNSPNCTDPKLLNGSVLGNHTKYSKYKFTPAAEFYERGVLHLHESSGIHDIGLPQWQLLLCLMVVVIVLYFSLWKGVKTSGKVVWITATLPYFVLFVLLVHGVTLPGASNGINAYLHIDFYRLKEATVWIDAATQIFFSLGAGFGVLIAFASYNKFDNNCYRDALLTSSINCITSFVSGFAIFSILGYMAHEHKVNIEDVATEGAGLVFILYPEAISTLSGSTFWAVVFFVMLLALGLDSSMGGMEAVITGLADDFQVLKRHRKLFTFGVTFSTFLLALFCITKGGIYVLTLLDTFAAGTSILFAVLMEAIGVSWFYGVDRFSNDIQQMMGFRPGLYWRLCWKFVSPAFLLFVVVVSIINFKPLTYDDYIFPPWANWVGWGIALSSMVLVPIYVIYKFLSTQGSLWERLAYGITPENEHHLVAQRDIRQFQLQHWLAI
Description: Source: Human recombinant MDCK cells;
Incubation Time/Temp: 3 hours @ 4° C.;
(§2) Incubation Buffer: 50 mM Tris-HCl, pH 7.4, 100 mM NaCl, 1 μM Leupeptin, 10 μM PMSF;
Non-Specific Ligand: 10.0 μM Desipramine;
(§3) Quantitation Method: Radioligand Binding;
For data set [6], the target named is NET (Homo sapiens, UniProt P23975). As to conditions: at efficacious doses; cited from earlier work.
Sequence of NET (P23975 whole entry): as above
Data set [7] concerns the target Transporter, Dopamine (DAT) (Homo sapiens, UniProt Q01959). As to the kind of experiment: DAT radioligand binding ([125I] RTI-55), Eurofins. As to conditions: read-out: DAT, % inhibition, 100 nM compound.
Description: Source: Human recombinant CHO—S cells;
Incubation Time/Temp: 3 hours @ 4° C.;
as §2
Non-Specific Ligand: 10.0 μM Nomifensine;
Specific Binding: 90% (Historical Values);
as §3

T1 sequence (Q01959 whole entry): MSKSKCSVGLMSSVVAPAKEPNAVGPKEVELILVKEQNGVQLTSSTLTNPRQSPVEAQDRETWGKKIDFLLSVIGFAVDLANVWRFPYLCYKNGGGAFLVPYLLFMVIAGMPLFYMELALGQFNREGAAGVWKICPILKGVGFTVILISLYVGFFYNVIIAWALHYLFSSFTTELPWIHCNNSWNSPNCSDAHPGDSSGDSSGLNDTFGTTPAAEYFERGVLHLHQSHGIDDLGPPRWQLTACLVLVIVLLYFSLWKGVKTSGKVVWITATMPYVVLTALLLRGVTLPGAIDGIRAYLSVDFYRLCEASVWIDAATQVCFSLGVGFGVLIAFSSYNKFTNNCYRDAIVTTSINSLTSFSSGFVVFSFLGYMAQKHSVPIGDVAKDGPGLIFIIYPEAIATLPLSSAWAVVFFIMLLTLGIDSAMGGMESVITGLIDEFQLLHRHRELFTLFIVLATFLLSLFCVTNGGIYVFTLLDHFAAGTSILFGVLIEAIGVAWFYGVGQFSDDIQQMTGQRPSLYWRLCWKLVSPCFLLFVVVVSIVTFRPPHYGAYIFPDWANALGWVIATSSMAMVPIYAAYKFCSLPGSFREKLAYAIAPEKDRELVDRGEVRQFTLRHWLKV
Sequence of Transporter, Dopamine (DAT) (Q01959 whole entry): as above

Regarding `CC(=O)N1CCc2c(c3ccc(-n4ccc(OCc5ccc(F)cn5)cc4=O)cc3n2C)C1` [1-(2-acetyl-5-methyl-2,3,4,5-tetrahydro-1H-pyrido[4,3-b]indol-7-yl)-4-((5-fluoropyridin-2-yl)methoxy)pyridin-2(1H)-one], the “amount of metabolite comparing to parent compound Formula II” value in data set [1] is “very significant”. Moreover, the “contribution to the pharmacology of MCHR1 antagonism” value in data set [2] is reported as “does not contribute to the pharmacology of MCHR1 antagonism”.

For `CC(NC(C)(C)C)C(=O)c1cccc(Cl)c1` (stereo not shown) [Bupropion, bupropion], in data set [3] (lowest reported), the “Lowest Occupancy DAT” value is reported as 14% (Bupropion).

For `CCOC[C@@H]1[C@@H](c2ccc(Cl)c(Cl)c2)C[C@@H]2CC[C@H]1N2C` [tesofensine], in data set [4] (PWS patients), the “hyperphagia in patients with the appropriate plasma drug level” value is “hyperphagia controlled completely” and the “patients with plasma drug levels exceeding the safety levels who discontinued the treatment due to adverse events” value was 2/3. In data set [4] (lowered dose), the “efficacy after lowering the dosing for all patients” value is on record as “no efficacy”.

For the molecule `[2H]C1([2H])NCC(c2ccc(Cl)c(Cl)c2)c2ccc(-c3ccc4ncnn4c3)cc21` (single isomer, unassigned) [Compound 12A, 7-([1,2,4]triazolo[1,5-a]pyridin-6-yl)-4-(3,4-dichlorophenyl)-1,2,3,4-tetrahydroisoquinoline-1,1-d2], in data set [5], the inhibition (as a rule, the percentage by which the read-out fell short of the control) at 0.01 µM stood at 34% and the inhibition at 0.1 µM worked out at 79%.

Turning to `COc1ccc(C(CN(C)C)C2(O)CCCCC2)cc1` (stereo not shown) [Venlafaxine, venlafaxine], the NET occupancy in data set [6] is 8-61%.

In the case of `COC(=O)C(c1ccccc1)C1CCCCN1` (stereo not shown) [Methylphenidate, methylphenidate], in data set [3] (highest reported), the “Highest Occupancy DAT” value is recorded as 74%.

As to `[2H]C1([2H])NC([2H])([2H])C([2H])(c2ccc(Cl)c(Cl)c2)c2ccc(-c3ccc4ncnn4c3)cc21` (single isomer, unassigned) [Compound 8A, 7-([1,2,4]triazolo[1,5-a]pyridin-6-yl)-4-(3,4-dichlorophenyl)-1,2,3,4-tetrahydroisoquinoline-1,1,3,3,4-d5], in data set [5], the inhibition at 0.01 µM was found to be 29% and the inhibition at 0.1 µM is 86%. Further, the inhibition at 0.1 µM in data set [7] was determined as 93%.

As to `[2H]C1([2H])NCc2cc(-c3ccc4ncnn4c3)ccc2C1([2H])c1ccc(Cl)c(Cl)c1` (single isomer, unassigned) [Compound 16B, 7-([1,2,4]triazolo[1,5-a]pyridin-6-yl)-4-(3,4-dichlorophenyl)-1,2,3,4-tetrahydroisoquinoline-3,3,4-d3], in data set [5], the inhibition at 0.01 µM worked out at 49% and the inhibition at 0.1 µM came out at 72%. Moreover, the inhibition at 0.1 µM in data set [7] came out at 76%.
